Test results taken from PubChem BioAssay AID2060898 (Molecular Pharmacology Branch, DTP, NCI, 2025).
pIC50: −log10 of the molar value.

Test system: 616215-338-R-J1-PDC complex spheroid viability
Experiment: Anticancer human tumor 616215-338-R-J1-PDC patient-derived colon adenocarcinoma cell line growth inhibition [RAS]
Details: for pIC50: curve of first compound; for viability, T/C: stronger effect = lower value
In short: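 Tumour cells grown as complex spheroids with HUVEC endothelial cells and mesenchymal stem cells, treated with RAS pathway inhibitor combinations. Each agent spans half-log steps from near clinical Cmax, or 10 microM where Cmax is unknown.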
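Further: spheroids exposed to agents for seven days before viability readout.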
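Wherever viability, T/C is given: 100% = DMSO vehicle control viability.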

SMILES: CCc1c2c(nc3ccc(O)cc13)-c1cc3c(c(=O)n1C2)COC(=O)[C@]3(O)CC + C#Cc1c(F)ccc2cc(O)cc(-c3ncc4c(N5CC6CCC(C5)N6)nc(OCC56CCCN5CC(F)C6)nc4c3F)c12
- pIC50 (second compound 0.0316 µM): 7.99
- pIC50 (second compound 0.1 µM): 7.97
- pIC50 (second compound 0.316 µM): 7.77
- pIC50 (second compound 1 µM): 8.11
- pIC50 (second compound 3.16 µM): 8.33
- pIC50 (second compound 10 µM): > 9.02
- viability, T/C (second compound 0.0316 µM, first compound 0.000949 µM): 108%
- viability, T/C (second compound 0.0316 µM, first compound 0.003 µM): 108%
- viability, T/C (second compound 0.0316 µM, first compound 0.00949 µM): 50.2%
- viability, T/C (second compound 0.0316 µM, first compound 0.03 µM): 35%
- viability, T/C (second compound 0.0316 µM, first compound 0.0949 µM): 21.1%
- viability, T/C (second compound 0.0316 µM, first compound 0.3 µM): 16.5%
- viability, T/C (second compound 0.1 µM, first compound 0.000949 µM): 116%
- viability, T/C (second compound 0.1 µM, first compound 0.003 µM): 103%
- viability, T/C (second compound 0.1 µM, first compound 0.00949 µM): 50.8%
- viability, T/C (second compound 0.1 µM, first compound 0.03 µM): 27.9%
- viability, T/C (second compound 0.1 µM, first compound 0.0949 µM): 21.6%
- viability, T/C (second compound 0.1 µM, first compound 0.3 µM): 13.6%
- viability, T/C (second compound 0.316 µM, first compound 0.000949 µM): 112%
- viability, T/C (second compound 0.316 µM, first compound 0.003 µM): 100%
- viability, T/C (second compound 0.316 µM, first compound 0.00949 µM): 63%
- viability, T/C (second compound 0.316 µM, first compound 0.03 µM): 36%
- viability, T/C (second compound 0.316 µM, first compound 0.0949 µM): 20.6%
- viability, T/C (second compound 0.316 µM, first compound 0.3 µM): 14%
- viability, T/C (second compound 1 µM, first compound 0.000949 µM): 120%
- viability, T/C (second compound 1 µM, first compound 0.003 µM): 89.6%
- viability, T/C (second compound 1 µM, first compound 0.00949 µM): 38.7%
- viability, T/C (second compound 1 µM, first compound 0.03 µM): 30.5%
- viability, T/C (second compound 1 µM, first compound 0.0949 µM): 20.2%
- viability, T/C (second compound 1 µM, first compound 0.3 µM): 15.8%
- viability, T/C (second compound 3.16 µM, first compound 0.000949 µM): 89.3%
- viability, T/C (second compound 3.16 µM, first compound 0.003 µM): 65.8%
- viability, T/C (second compound 3.16 µM, first compound 0.00949 µM): 25.1%
- viability, T/C (second compound 3.16 µM, first compound 0.03 µM): 20%
- viability, T/C (second compound 3.16 µM, first compound 0.0949 µM): 15.1%
- viability, T/C (second compound 3.16 µM, first compound 0.3 µM): 13.2%
- viability, T/C (second compound 10 µM, first compound 0.000949 µM): 47.1%
- viability, T/C (second compound 10 µM, first compound 0.003 µM): 45%
- viability, T/C (second compound 10 µM, first compound 0.00949 µM): 17.5%
- viability, T/C (second compound 10 µM, first compound 0.03 µM): 17.6%
- viability, T/C (second compound 10 µM, first compound 0.0949 µM): 16.6%
- viability, T/C (second compound 10 µM, first compound 0.3 µM): 10.7%

SMILES: C=CC(=O)Nc1cc(Nc2nccc(-c3cn(C)c4ccccc34)n2)c(OC)cc1N(C)CCN(C)C + C=CC(=O)N1CCN(c2nc(OCC3CCCN3C)nc3c(F)c(-c4nc(N)cc(C)c4C(F)(F)F)c(Cl)cc23)C(C)C1
- pIC50 (second compound 0.00316 µM): < 6.00
- pIC50 (second compound 0.01 µM): < 6.00
- pIC50 (second compound 0.0316 µM): < 6.00
- pIC50 (second compound 0.1 µM): < 6.00
- pIC50 (second compound 0.316 µM): < 6.00
- pIC50 (second compound 1 µM): < 6.00
- viability, T/C (second compound 0.00316 µM, first compound 0.00316 µM): 95.8%
- viability, T/C (second compound 0.00316 µM, first compound 0.01 µM): 105%
- viability, T/C (second compound 0.00316 µM, first compound 0.0316 µM): 107%
- viability, T/C (second compound 0.00316 µM, first compound 0.1 µM): 104%
- viability, T/C (second compound 0.00316 µM, first compound 0.316 µM): 106%
- viability, T/C (second compound 0.00316 µM, first compound 1 µM): 85.6%
- viability, T/C (second compound 0.01 µM, first compound 0.00316 µM): 93%
- viability, T/C (second compound 0.01 µM, first compound 0.01 µM): 108%
- viability, T/C (second compound 0.01 µM, first compound 0.0316 µM): 99%
- viability, T/C (second compound 0.01 µM, first compound 0.1 µM): 101%
- viability, T/C (second compound 0.01 µM, first compound 0.316 µM): 108%
- viability, T/C (second compound 0.01 µM, first compound 1 µM): 101%
- viability, T/C (second compound 0.0316 µM, first compound 0.00316 µM): 101%
- viability, T/C (second compound 0.0316 µM, first compound 0.01 µM): 110%
- viability, T/C (second compound 0.0316 µM, first compound 0.0316 µM): 107%
- viability, T/C (second compound 0.0316 µM, first compound 0.1 µM): 99.3%
- viability, T/C (second compound 0.0316 µM, first compound 0.316 µM): 108%
- viability, T/C (second compound 0.0316 µM, first compound 1 µM): 96%
- viability, T/C (second compound 0.1 µM, first compound 0.00316 µM): 103%
- viability, T/C (second compound 0.1 µM, first compound 0.01 µM): 102%
- viability, T/C (second compound 0.1 µM, first compound 0.0316 µM): 88.6%
- viability, T/C (second compound 0.1 µM, first compound 0.1 µM): 106%
- viability, T/C (second compound 0.1 µM, first compound 0.316 µM): 128%
- viability, T/C (second compound 0.1 µM, first compound 1 µM): 74.2%
- viability, T/C (second compound 0.316 µM, first compound 0.00316 µM): 105%
- viability, T/C (second compound 0.316 µM, first compound 0.01 µM): 98.9%
- viability, T/C (second compound 0.316 µM, first compound 0.0316 µM): 99.4%
- viability, T/C (second compound 0.316 µM, first compound 0.1 µM): 106%
- viability, T/C (second compound 0.316 µM, first compound 0.316 µM): 109%
- viability, T/C (second compound 0.316 µM, first compound 1 µM): 74.4%
- viability, T/C (second compound 1 µM, first compound 0.00316 µM): 96.9%
- viability, T/C (second compound 1 µM, first compound 0.01 µM): 98.3%
- viability, T/C (second compound 1 µM, first compound 0.0316 µM): 91%
- viability, T/C (second compound 1 µM, first compound 0.1 µM): 114%
- viability, T/C (second compound 1 µM, first compound 0.316 µM): 110%
- viability, T/C (second compound 1 µM, first compound 1 µM): 68.9%
